Laboratory results as given in patent US20110313153A1, “5-HT4 INHIBITORS FOR TREATING AIRWAY DISEASES, IN PARTICULAR ASTHMA” (priority 2009, published 2011).
Entries after “also recorded” stand apart in the source; their conditions may differ.

What was measured:
OVA-sensitized mice [1] = experiment: OVA-induced experimental asthma in mice: BAL cell infiltrate and MLN cytokines; type: in vivo, BALB/c mice
Experimental: (§1) BALB/c mice (n=6-8 per group) were sensitized to OVA by i.p. injection of OVA/alum (10 μg OVA grade V adsorbed to 1 mg aluminium hydroxide; Sigma-Aldrich) on days 0 and 7 and were subjected to OVA aerosol challenges (grade III) on days 17-19; aerosol challenges were dispensed from a jet nebulizer delivering 1% OVA in PBS for 30 minutes. Thirty minutes before each OVA exposure, mice were anesthetized using Avertin (Sigma-Aldrich) and received an i.t. injection of control vehicle, or of M0014 (0.1, 0.4 or 4 nM in PBS) in a volume of 80 μl. Twenty-four hours after the last OVA exposure, BAL was performed and LNs were resected and digested using collagenase/DNAse.
Flow cytometry and sorting. After counting and washing, BAL cells were stained for 30 minutes with FITC-labeled anti-I-Ad/I-Ed (macrophages/DCs), PE-labeled anti-CCR3 (eosinophils), Cy-chrome-labeled anti-CD3 and anti-CD19 (lymphocytes), and allophycocyanin-labeled (APClabeled) anti-CD11c (macrophages/DCs) in PBS containing 0.5% BSA and 0.01% sodium azide. Differential cell counts were analyzed by flow cytometry, as previously described (van Rijt et al., 2004).
Cytokine measurements. To measure cytokine levels, MLN cells were plated in round-bottomed 96-well plates (1×10^6 cells/ml) and restimulated with OVA (10 μg/ml) for 4 days. The presence of IL-4, IL-5, IL-13 and IFN-γ was assayed on supernatants by ELISA (BD).

OVA-sensitized mice [2] = experiment: Bronchial hyperreactivity (BHR) to i.v. metacholine, dynamic resistance and compliance; type: in vivo, BALB/c mice; conditions: M0014 prior to each allergen challenge; measured 24 hours after the last OVA aerosol; FIG. 2
Experimental: as §1
For the measurement of dynamic resistance and compliance, mice were anesthetized with urethane, paralyzed using d-tubocurarine, tracheotomized, and intubated with an 18-gauge catheter, followed by mechanical ventilation with a Flexivent apparatus (SCIREQ). Respiratory frequency was set at 120 breaths per min with a tidal volume of 0.2 ml and a positive end-expiratory pressure of […]. Increasing concentrations of metacholine were administered via the jugular vein. Dynamic resistance and compliance was recorded after a standardized inhalation maneuver given every 10 seconds for 2 minutes. Baseline resistance was restored before administering the subsequent doses of metacholine.

Balb/c mice = experiment: Zymosan induced inflammatory cell recruitment to the lung; type: in vivo, Female Balb/c mice
Experimental: Female Balb/c mice (7-8 weeks; 20 g) were used in all studies. The animals were kept in standard animal holding facilities and have unlimited access to food and water. Animals were randomized to receive vehicle or 0.1-0.2 ml/20 g mouse, M0014 (0.001, 0.01, 0.1 and 1 mg/kg) via the oral route 30 min prior to, and 6 h after the administration of zymosan (i.n; 20 μL to each nostril, to give a total volume of administration of 40 μL). Animals received zymosan A to give a total dose of 4 mg/mouse.
5 mg of M0014 was dissolved in 5 mL of sterile water to give 1 mg/ml solution. The solutions were prepared freshly each time. The 1 mg/ml solution was diluted to a 0.1, 0.01, 0.001 and 0.0001 mg/ml solution. From these concentrations, 0.2 ml was administered orally to obtain 1, 0.1, 0.01 and 0.001 mg/kg respectively. Sterile water used as control vehicle.
Twenty-four hours after dosing, the mice were killed by overdose with an injectable anaesthetic and 0.5 ml of saline was injected into lung via a tracheal cannula and the fluid collected. This was repeated 3 times. Approximately 1 ml of lavage fluid was collected and stored on ice. Total cells and differential cells were counted and a reduction in neutrophil numbers was the primary end point.

conscious dogs = experiment: SSRI-induced loss of fundic compliance in conscious dogs; type: in vivo, dog; conditions: low doses, data not shown
Description: (§2) Also the aroylated 4-aminomethylpiperidines 5-HT4 receptor antagonists (hereinafter also referred to as the compounds) of the present invention (e.g. compound M0014) were capable to suppress or inverse the 5-HT4 R-mediated prokinetic activity of serotonin or 5-HT4 R agonists in the GI tract (data not shown). For example, in conscious dogs, low doses of M0014 reversed the selective serotonin re-uptake inhibitor (SSRI)-induced loss of fundic compliance. […] As a final example, the compound reversed the 5-HT4 R agonist-induced stimulation of canine antral motility, measured with chronically implanted strain gauges.

dog [3] = experiment: Dog model of delayed gastric emptying of a liquid meal; type: in vivo; conditions: data not shown
Description: as §2

dog [4] = experiment: Canine antral motility measured with chronically implanted strain gauges; type: in vivo; conditions: data not shown
Description: as §2

GI tract [5] = experiment: Effect of the antagonist by itself on the studied GI functions; type: in vivo, dog; conditions: without agonist
Description: as §2
Similar to SB-207266, the 5-HT4 R antagonist M0014 had by itself no effect on the studied GI functions mentioned above.

guinea-pigs = conditions: antigen induced, guinea pig model; cited from earlier work
[6] = test system: human airway epithelial cells, dendritic cells, monocytes; conditions: no effect of the antagonist per se described; cited from earlier work
GI tract [7] = conditions: Sanger et al., cited from earlier work
[8] = MLN cells restimulated with OVA for 4 days, ELISA, FIG. 1C and D
[9] = i.t. 80 μl, 0.1, 0.4 or 4 nM, 30 minutes prior to each allergen challenge, FIG. 1A

COCCCN1CC[C@@H](CNC(=O)c2cc(C)cc3c2OCCCO3)[C@H](O)C1 (relative stereo) [M0014, (3S-trans)-8-methyl-3,4-dihydro-3H-benzo[b][1,4]dioxepine-6-carboxylic acid [3-hydroxy-1-(3-methoxy-propyl)-piperidine-4-ylmethyl]-amide]
IFN-γ production in the MLNs (OVA-sensitized mice [1]; [8]): weak increase | levels of IL-4 in the MLNs (OVA-sensitized mice [1]; [8]): mildly but significantly reduced | levels of IL-5 in the MLNs (OVA-sensitized mice [1]; [8]): mildly but significantly reduced | levels of IL-13 in the MLNs (OVA-sensitized mice [1]; [8]): mildly but significantly reduced | eosinophil infiltrate into the BAL compartment (OVA-sensitized mice [1]; [9]): significant dose-dependent reduction | lymphocyte infiltrate into the BAL compartment (OVA-sensitized mice [1]; [9]): significant dose-dependent reduction | macrophage infiltrate into the BAL compartment (OVA-sensitized mice [1]; [9]): significant dose-dependent reduction | OVA-induced change in metacholine responsiveness (OVA-sensitized mice [2]): markedly attenuated | neutrophil cell number (Balb/c mice; FIG. 3 legend, <0.05 cf zymosan alone): significant effect | total number of cells recruited to the airways (Balb/c mice; oral, 0.01 and 0.1 mg/kg, 30 min prior to and 6 h after zymosan, P<0.05 Dunnett's test versus control, FIG. 3a): significant effect; also recorded: significantly reduced | decrease in the recruitment of neutrophils to the airways (Balb/c mice; oral, 0.01 and 0.1 mg/kg, P<0.01 Dunnett's test vs control, FIG. 3c): 40-50% | SSRI-induced loss of fundic compliance (conscious dogs): reversed | 5-HT4 R agonist-induced acceleration of gastric emptying (dog [3]): potently inhibited | 5-HT4 R agonist-induced stimulation of canine antral motility (dog [4]): reversed | effect by itself on the studied GI functions (GI tract [5]): no effect

Cn1cc(C(=O)OCC2CCN(CCNS(C)(=O)=O)CC2)c2ccccc21 [GR113808]
airway hyperresponsiveness (guinea-pigs): capable to normalize

COc1cc(COc2cc(N)c(Cl)cc2C(=O)CCC2CCN(CCNS(C)(=O)=O)CC2)cc(OC)c1 [RS 39604]
effects of 5-HT [6]: inhibit

CCCCN1CCC(CNC(=O)c2c3n(c4ccccc24)CCCO3)CC1 [piboserod]
5-HT4 R-mediated effects of serotonin (5-HT) in the GI tract (GI tract [7]; 2000, Bharucha et al.): antagonizes | normal bowel motility (GI tract [7]; animals or humans, 1998): does not seem to affect
